We go through seven compounds from paper PMC8214221, “Sequence determinants in the cathelicidin LL-37 that promote inflammation via presentation of RNA to scavenger receptors” (The Journal of Biological Chemistry, 2021).

Residues, ends and D or L forms follow the SMILES beside them.

This data set relates to normal human epidermal keratinocytes (NHEKs). The data set can be described thus: LDH release cytotoxicity assay in keratinocytes. It counts as cell-based. The following applies: minimal concentration giving 50% LDH release by NHEKs. The text has this:
Since LL-34 was the minimal truncation mutant of LL-37 that retained both antimicrobial and immune modulatory activity, we prepared a series of synthetic peptides with sequential substitutions of alanine at each amino acid position of the LL-34 parent peptide (Table 1). We compared the minimum inhibitory concentration (MIC) for the LL-34 parent peptide and the alanine mutants (LL-34 peptides—L1A and R34A) against methicillin-resistant Staphylococcus aureus strain USA300 (Fig. 1A). LL-34 peptides were incubated at concentrations of 0 to 100 μM with bacteria. The minimal concentration at which no growth was observed was noted after 18 h of incubation. […] Because of these changes in the MIC against S. aureus between the mutants, we investigated the effective toxicity profile of the peptides in normal human epidermal keratinocytes (NHEKs) by lactate dehydrogenase (LDH) release assay (Table 1). […] Most other peptides were cytotoxic at a minimal concentration of 10 μM, whereas LL-34—K15A was toxic at a concentration of 2.5 μM.
LDH cytotoxicity assay was performed according to manufacturer's instructions (Thermo Fisher Scientific). Culture supernatants from keratinocytes were used fresh for LDH assay after experimental treatments.
In general terms: Release of lactate dehydrogenase indicates damage to the cell membrane.

Consider `CC[C@H](C)[C@H](NC(=O)[C@H](CCCCN)NC(=O)[C@H](CCC(=O)O)NC(=O)[C@H](CCCCN)NC(=O)[C@H](CO)NC(=O)[C@H](CCCCN)NC(=O)[C@H](CCCNC(=N)N)NC(=O)[C@H](Cc1ccccc1)NC(=O)[C@H](Cc1ccccc1)NC(=O)[C@H](CC(=O)O)NC(=O)[C@H](C)NC(=O)[C@H](CC(C)C)NC(=O)[C@@H](N)CC(C)C)C(=O)NCC(=O)N[C@@H](CCCCN)C(=O)N[C@@H](CCC(=O)O)C(=O)N[C@@H](Cc1ccccc1)C(=O)N[C@@H](CCCCN)C(=O)N[C@@H](CCCNC(=N)N)C(=O)N[C@H](C(=O)N[C@H](C(=O)N[C@@H](CCC(N)=O)C(=O)N[C@@H](CCCNC(=N)N)C(=O)N[C@H](C(=O)N[C@@H](CCCCN)C(=O)N[C@@H](CC(=O)O)C(=O)N[C@@H](Cc1ccccc1)C(=O)N[C@@H](CC(C)C)C(=O)N[C@@H](CCCNC(=N)N)C(=O)N[C@@H](CC(N)=O)C(=O)N[C@@H](CC(C)C)C(=O)N[C@H](C(=O)N1CCC[C@H]1C(=O)N[C@@H](CCCNC(=N)N)C(=O)O)C(C)C)[C@@H](C)CC)C(C)C)[C@@H](C)CC` [LL-34—G3A] (H-LLADFFRKSKEKIGKEFKRIVQRIKDFLRNLVPR-OH; N-terminus and C-terminus assumed), for which the “Minimal cytotoxic concentration in NHEK (LD50)” value (“Minimal cytotoxic concentration” for short) stood at 20 µM.

For `CC[C@H](C)[C@H](NC(=O)[C@H](CCCCN)NC(=O)[C@H](CCC(=O)O)NC(=O)[C@H](CCCCN)NC(=O)[C@H](CO)NC(=O)[C@H](CCCCN)NC(=O)[C@H](CCCNC(=N)N)NC(=O)[C@H](Cc1ccccc1)NC(=O)[C@H](Cc1ccccc1)NC(=O)[C@H](CC(=O)O)NC(=O)CNC(=O)[C@H](CC(C)C)NC(=O)[C@@H](N)CC(C)C)C(=O)NCC(=O)N[C@@H](CCCCN)C(=O)N[C@@H](C)C(=O)N[C@@H](Cc1ccccc1)C(=O)N[C@@H](CCCCN)C(=O)N[C@@H](CCCNC(=N)N)C(=O)N[C@H](C(=O)N[C@H](C(=O)N[C@@H](CCC(N)=O)C(=O)N[C@@H](CCCNC(=N)N)C(=O)N[C@H](C(=O)N[C@@H](CCCCN)C(=O)N[C@@H](CC(=O)O)C(=O)N[C@@H](Cc1ccccc1)C(=O)N[C@@H](CC(C)C)C(=O)N[C@@H](CCCNC(=N)N)C(=O)N[C@@H](CC(N)=O)C(=O)N[C@@H](CC(C)C)C(=O)N[C@H](C(=O)N1CCC[C@H]1C(=O)N[C@@H](CCCNC(=N)N)C(=O)O)C(C)C)[C@@H](C)CC)C(C)C)[C@@H](C)CC` [LL-34—E16A] (H-LLGDFFRKSKEKIGKAFKRIVQRIKDFLRNLVPR-OH; N-terminus and C-terminus assumed), the “Minimal cytotoxic concentration” value stood at 5 µM.

As to `CC[C@H](C)[C@H](NC(=O)[C@H](CCCCN)NC(=O)[C@H](CCC(=O)O)NC(=O)[C@H](CCCCN)NC(=O)[C@H](CO)NC(=O)[C@H](CCCCN)NC(=O)[C@H](CCCNC(=N)N)NC(=O)[C@H](Cc1ccccc1)NC(=O)[C@H](Cc1ccccc1)NC(=O)[C@H](CC(=O)O)NC(=O)CNC(=O)[C@H](C)NC(=O)[C@@H](N)CC(C)C)C(=O)NCC(=O)N[C@@H](CCCCN)C(=O)N[C@@H](CCC(=O)O)C(=O)N[C@@H](Cc1ccccc1)C(=O)N[C@@H](CCCCN)C(=O)N[C@@H](CCCNC(=N)N)C(=O)N[C@H](C(=O)N[C@H](C(=O)N[C@@H](CCC(N)=O)C(=O)N[C@@H](CCCNC(=N)N)C(=O)N[C@H](C(=O)N[C@@H](CCCCN)C(=O)N[C@@H](CC(=O)O)C(=O)N[C@@H](Cc1ccccc1)C(=O)N[C@@H](CC(C)C)C(=O)N[C@@H](CCCNC(=N)N)C(=O)N[C@@H](CC(N)=O)C(=O)N[C@@H](CC(C)C)C(=O)N[C@H](C(=O)N1CCC[C@H]1C(=O)N[C@@H](CCCNC(=N)N)C(=O)O)C(C)C)[C@@H](C)CC)C(C)C)[C@@H](C)CC` [LL-34—L2A] (H-LAGDFFRKSKEKIGKEFKRIVQRIKDFLRNLVPR-OH; N-terminus and C-terminus assumed), the “Minimal cytotoxic concentration” value turned out to be 5 µM.

For `CC[C@H](C)[C@H](NC(=O)[C@H](CCCCN)NC(=O)[C@H](CCC(=O)O)NC(=O)[C@H](CCCCN)NC(=O)[C@H](CO)NC(=O)[C@H](C)NC(=O)[C@H](CCCNC(=N)N)NC(=O)[C@H](Cc1ccccc1)NC(=O)[C@H](Cc1ccccc1)NC(=O)[C@H](CC(=O)O)NC(=O)CNC(=O)[C@H](CC(C)C)NC(=O)[C@@H](N)CC(C)C)C(=O)NCC(=O)N[C@@H](CCCCN)C(=O)N[C@@H](CCC(=O)O)C(=O)N[C@@H](Cc1ccccc1)C(=O)N[C@@H](CCCCN)C(=O)N[C@@H](CCCNC(=N)N)C(=O)N[C@H](C(=O)N[C@H](C(=O)N[C@@H](CCC(N)=O)C(=O)N[C@@H](CCCNC(=N)N)C(=O)N[C@H](C(=O)N[C@@H](CCCCN)C(=O)N[C@@H](CC(=O)O)C(=O)N[C@@H](Cc1ccccc1)C(=O)N[C@@H](CC(C)C)C(=O)N[C@@H](CCCNC(=N)N)C(=O)N[C@@H](CC(N)=O)C(=O)N[C@@H](CC(C)C)C(=O)N[C@H](C(=O)N1CCC[C@H]1C(=O)N[C@@H](CCCNC(=N)N)C(=O)O)C(C)C)[C@@H](C)CC)C(C)C)[C@@H](C)CC` [LL-34—K8A] (H-LLGDFFRASKEKIGKEFKRIVQRIKDFLRNLVPR-OH; N-terminus and C-terminus assumed), the “Minimal cytotoxic concentration” value worked out at 5 µM.

Turning to `CC[C@H](C)[C@H](NC(=O)[C@H](CCCCN)NC(=O)[C@H](CCC(=O)O)NC(=O)[C@H](CCCCN)NC(=O)[C@H](CO)NC(=O)[C@H](CCCCN)NC(=O)[C@H](CCCNC(=N)N)NC(=O)[C@H](Cc1ccccc1)NC(=O)[C@H](Cc1ccccc1)NC(=O)[C@H](CC(=O)O)NC(=O)CNC(=O)[C@H](CC(C)C)NC(=O)[C@@H](N)CC(C)C)C(=O)NCC(=O)N[C@@H](CCCCN)C(=O)N[C@@H](CCC(=O)O)C(=O)N[C@@H](Cc1ccccc1)C(=O)N[C@@H](CCCCN)C(=O)N[C@@H](CCCNC(=N)N)C(=O)N[C@H](C(=O)N[C@H](C(=O)N[C@@H](CCC(N)=O)C(=O)N[C@@H](CCCNC(=N)N)C(=O)N[C@H](C(=O)N[C@@H](CCCCN)C(=O)N[C@@H](CC(=O)O)C(=O)N[C@@H](Cc1ccccc1)C(=O)N[C@@H](CC(C)C)C(=O)N[C@@H](C)C(=O)N[C@@H](CC(N)=O)C(=O)N[C@@H](CC(C)C)C(=O)N[C@H](C(=O)N1CCC[C@H]1C(=O)N[C@@H](CCCNC(=N)N)C(=O)O)C(C)C)[C@@H](C)CC)C(C)C)[C@@H](C)CC` [LL-34—R29A] (H-LLGDFFRKSKEKIGKEFKRIVQRIKDFLANLVPR-OH; N-terminus and C-terminus assumed), the “Minimal cytotoxic concentration” value worked out at 5 µM.

As for `CC[C@H](C)[C@H](NC(=O)[C@H](CCCCN)NC(=O)[C@H](CCC(=O)O)NC(=O)[C@H](CCCCN)NC(=O)[C@H](CO)NC(=O)[C@H](CCCCN)NC(=O)[C@H](CCCNC(=N)N)NC(=O)[C@H](Cc1ccccc1)NC(=O)[C@H](Cc1ccccc1)NC(=O)[C@H](CC(=O)O)NC(=O)CNC(=O)[C@H](CC(C)C)NC(=O)[C@@H](N)CC(C)C)C(=O)NCC(=O)N[C@@H](CCCCN)C(=O)N[C@@H](CCC(=O)O)C(=O)N[C@@H](Cc1ccccc1)C(=O)N[C@@H](CCCCN)C(=O)N[C@@H](CCCNC(=N)N)C(=O)N[C@H](C(=O)N[C@H](C(=O)N[C@@H](CCC(N)=O)C(=O)N[C@@H](CCCNC(=N)N)C(=O)N[C@H](C(=O)N[C@@H](CCCCN)C(=O)N[C@@H](C)C(=O)N[C@@H](Cc1ccccc1)C(=O)N[C@@H](CC(C)C)C(=O)N[C@@H](CCCNC(=N)N)C(=O)N[C@@H](CC(N)=O)C(=O)N[C@@H](CC(C)C)C(=O)N[C@H](C(=O)N1CCC[C@H]1C(=O)N[C@@H](CCCNC(=N)N)C(=O)O)C(C)C)[C@@H](C)CC)C(C)C)[C@@H](C)CC` [LL-34—D26A] (H-LLGDFFRKSKEKIGKEFKRIVQRIKAFLRNLVPR-OH; N-terminus and C-terminus assumed), the “Minimal cytotoxic concentration” value was 10 µM.

For `CC[C@H](C)[C@H](NC(=O)[C@H](C)NC(=O)[C@H](CCCCN)NC(=O)[C@H](Cc1ccccc1)NC(=O)[C@H](CCC(=O)O)NC(=O)[C@H](CCCCN)NC(=O)CNC(=O)[C@@H](NC(=O)[C@H](CCCCN)NC(=O)[C@H](CCC(=O)O)NC(=O)[C@H](CCCCN)NC(=O)[C@H](CO)NC(=O)[C@H](CCCCN)NC(=O)[C@H](CCCNC(=N)N)NC(=O)[C@H](Cc1ccccc1)NC(=O)[C@H](Cc1ccccc1)NC(=O)[C@H](CC(=O)O)NC(=O)CNC(=O)[C@H](CC(C)C)NC(=O)[C@@H](N)CC(C)C)[C@@H](C)CC)C(=O)N[C@H](C(=O)N[C@@H](CCC(N)=O)C(=O)N[C@@H](CCCNC(=N)N)C(=O)N[C@H](C(=O)N[C@@H](CCCCN)C(=O)N[C@@H](CC(=O)O)C(=O)N[C@@H](Cc1ccccc1)C(=O)N[C@@H](CC(C)C)C(=O)N[C@@H](CCCNC(=N)N)C(=O)N[C@@H](CC(N)=O)C(=O)N[C@@H](CC(C)C)C(=O)N[C@H](C(=O)N1CCC[C@H]1C(=O)N[C@@H](CCCNC(=N)N)C(=O)O)C(C)C)[C@@H](C)CC)C(C)C` [LL-34—R19A] (H-LLGDFFRKSKEKIGKEFKAIVQRIKDFLRNLVPR-OH; N-terminus and C-terminus assumed), the “Minimal cytotoxic concentration” value amounted to 10 µM.
